According to patent US20160303095A1, “METHODS OF TREATING HEPATITIS B VIRUS” (Gilead Sciences, Inc., priority 2015, published 2016):

Assays:
KDM6B = molecular target: T1, KDM6B (Homo sapiens, UniProt O15054); assay: Biochemical KDM inhibition assay (LANCE), KDM6B; settings: read-out: Biochemical IC50 KDM 6B
T1 construct: host or cells: Sf9 cells
Method: (§1) Representative compounds were characterized for their inhibition of KDM5 using biotinylated histone substrates. Inhibition was measured in vitro (CEREP Poitier, Le Bois l'Evêque, France) following experimental conditions described in Table 2. Briefly, the test compound, reference compound or water (control) was mixed with about 2-20 ng of recombinant, Human enzymes expressed in Sf9 cells in a buffer containing 45 mM Hepes/Tris (pH 7), 5 μM FAS, 100 μM ascorbic acid, 10 μM 2-oxoglutarate, 0.01% Tween 20 and 0.01% BSA. Thereafter, the reaction was initiated by adding the biotin-labeled substrate, and the mixture was incubated for 10-30 min at room temperature. For basal control measurements, the enzyme was omitted from the reaction mixture. Following incubation the reaction was stopped by adding 1 mM EDTA. After 5 min, the anti-methyl histone antibody labeled with europium chelate and the Ulight streptavidine (Perkin Elmer Waltham, Mass.) were added. After 60 min more, the fluorescence transfer was measured at λex=320 nm and λem=620 and λem=665 nm using a microplate reader (Envision, Perkin Elmer) (LANCE). The enzyme activity was determined by dividing the signal measured at λem=665 nm by that measured at 620 nm (ratio).

KDM2A = molecular target: T2, KDM2A (Homo sapiens, UniProt Q9Y2K7); assay: Biochemical KDM inhibition assay (LANCE), KDM2A; settings: read-out: Biochemical IC50 KDM 2A
T2 construct: host or cells: Sf9 cells
T2 sequence (Q9Y2K7 1-1162): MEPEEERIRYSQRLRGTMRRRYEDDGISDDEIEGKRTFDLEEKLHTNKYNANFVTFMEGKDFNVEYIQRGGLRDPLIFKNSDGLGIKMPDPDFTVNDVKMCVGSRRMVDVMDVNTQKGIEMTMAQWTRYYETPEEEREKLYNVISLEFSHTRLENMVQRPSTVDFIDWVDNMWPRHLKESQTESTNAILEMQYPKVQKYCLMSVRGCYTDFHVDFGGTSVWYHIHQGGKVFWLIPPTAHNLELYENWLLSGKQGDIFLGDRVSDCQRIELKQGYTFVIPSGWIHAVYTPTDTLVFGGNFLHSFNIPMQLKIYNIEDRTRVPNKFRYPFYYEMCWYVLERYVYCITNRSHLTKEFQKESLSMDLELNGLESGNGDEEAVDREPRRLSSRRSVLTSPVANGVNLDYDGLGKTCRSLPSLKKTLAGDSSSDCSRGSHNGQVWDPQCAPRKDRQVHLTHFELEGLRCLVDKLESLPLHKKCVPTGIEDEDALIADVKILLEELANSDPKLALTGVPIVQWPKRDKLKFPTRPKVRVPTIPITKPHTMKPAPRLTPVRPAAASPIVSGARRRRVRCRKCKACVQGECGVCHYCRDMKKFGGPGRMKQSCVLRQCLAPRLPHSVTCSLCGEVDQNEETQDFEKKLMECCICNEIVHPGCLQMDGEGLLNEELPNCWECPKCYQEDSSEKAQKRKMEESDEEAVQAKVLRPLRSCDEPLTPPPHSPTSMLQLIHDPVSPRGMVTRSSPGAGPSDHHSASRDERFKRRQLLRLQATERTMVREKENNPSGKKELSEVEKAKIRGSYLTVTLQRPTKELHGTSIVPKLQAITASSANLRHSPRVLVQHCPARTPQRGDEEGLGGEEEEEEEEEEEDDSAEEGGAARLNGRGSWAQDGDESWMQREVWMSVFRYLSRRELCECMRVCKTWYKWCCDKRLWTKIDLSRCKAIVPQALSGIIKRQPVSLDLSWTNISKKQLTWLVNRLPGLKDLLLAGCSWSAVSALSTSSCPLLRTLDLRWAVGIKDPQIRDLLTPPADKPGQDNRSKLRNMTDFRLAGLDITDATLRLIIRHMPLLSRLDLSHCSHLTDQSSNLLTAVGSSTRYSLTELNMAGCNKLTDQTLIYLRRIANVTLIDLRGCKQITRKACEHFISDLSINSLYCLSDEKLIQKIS
Method: as §1

KDM3A = molecular target: T3, KDM3A (Homo sapiens, UniProt Q9Y4C1); assay: Biochemical KDM inhibition assay (LANCE), KDM3A; settings: read-out: Biochemical IC50 KDM 3A
T3 construct: host or cells: Sf9 cells
T3 sequence (Q9Y4C1 1-1321): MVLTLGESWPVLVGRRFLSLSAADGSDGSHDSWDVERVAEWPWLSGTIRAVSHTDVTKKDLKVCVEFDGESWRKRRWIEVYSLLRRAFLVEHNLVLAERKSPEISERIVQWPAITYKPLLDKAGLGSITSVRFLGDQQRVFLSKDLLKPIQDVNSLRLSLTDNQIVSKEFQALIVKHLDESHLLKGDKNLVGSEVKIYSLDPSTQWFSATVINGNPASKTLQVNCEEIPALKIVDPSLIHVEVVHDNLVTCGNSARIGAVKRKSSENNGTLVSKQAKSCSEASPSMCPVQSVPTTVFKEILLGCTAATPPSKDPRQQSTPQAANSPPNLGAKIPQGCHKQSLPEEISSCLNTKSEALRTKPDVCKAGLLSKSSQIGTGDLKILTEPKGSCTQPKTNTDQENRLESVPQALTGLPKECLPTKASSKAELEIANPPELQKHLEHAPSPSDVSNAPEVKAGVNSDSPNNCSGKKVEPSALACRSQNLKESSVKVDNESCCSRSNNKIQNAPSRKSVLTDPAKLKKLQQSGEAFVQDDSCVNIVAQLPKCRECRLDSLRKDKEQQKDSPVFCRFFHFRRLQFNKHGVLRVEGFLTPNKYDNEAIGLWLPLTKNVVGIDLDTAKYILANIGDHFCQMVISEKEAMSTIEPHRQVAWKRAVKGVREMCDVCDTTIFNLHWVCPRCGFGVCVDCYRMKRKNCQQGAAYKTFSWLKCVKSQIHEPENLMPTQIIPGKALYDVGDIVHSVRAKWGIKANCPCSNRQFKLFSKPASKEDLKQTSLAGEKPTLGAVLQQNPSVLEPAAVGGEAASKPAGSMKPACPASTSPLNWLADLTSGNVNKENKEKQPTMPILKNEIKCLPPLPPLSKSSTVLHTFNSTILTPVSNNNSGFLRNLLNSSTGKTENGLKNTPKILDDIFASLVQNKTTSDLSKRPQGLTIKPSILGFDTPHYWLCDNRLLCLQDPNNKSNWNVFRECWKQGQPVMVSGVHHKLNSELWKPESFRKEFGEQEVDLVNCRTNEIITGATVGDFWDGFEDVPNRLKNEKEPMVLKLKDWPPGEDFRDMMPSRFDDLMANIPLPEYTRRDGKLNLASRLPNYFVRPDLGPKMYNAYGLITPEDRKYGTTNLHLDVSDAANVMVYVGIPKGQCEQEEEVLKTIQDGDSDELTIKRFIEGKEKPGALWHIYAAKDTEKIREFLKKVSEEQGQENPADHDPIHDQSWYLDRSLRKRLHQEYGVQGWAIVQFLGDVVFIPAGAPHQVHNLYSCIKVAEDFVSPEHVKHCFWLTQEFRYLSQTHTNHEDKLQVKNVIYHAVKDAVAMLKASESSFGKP

T1 sequence (O15054 whole entry): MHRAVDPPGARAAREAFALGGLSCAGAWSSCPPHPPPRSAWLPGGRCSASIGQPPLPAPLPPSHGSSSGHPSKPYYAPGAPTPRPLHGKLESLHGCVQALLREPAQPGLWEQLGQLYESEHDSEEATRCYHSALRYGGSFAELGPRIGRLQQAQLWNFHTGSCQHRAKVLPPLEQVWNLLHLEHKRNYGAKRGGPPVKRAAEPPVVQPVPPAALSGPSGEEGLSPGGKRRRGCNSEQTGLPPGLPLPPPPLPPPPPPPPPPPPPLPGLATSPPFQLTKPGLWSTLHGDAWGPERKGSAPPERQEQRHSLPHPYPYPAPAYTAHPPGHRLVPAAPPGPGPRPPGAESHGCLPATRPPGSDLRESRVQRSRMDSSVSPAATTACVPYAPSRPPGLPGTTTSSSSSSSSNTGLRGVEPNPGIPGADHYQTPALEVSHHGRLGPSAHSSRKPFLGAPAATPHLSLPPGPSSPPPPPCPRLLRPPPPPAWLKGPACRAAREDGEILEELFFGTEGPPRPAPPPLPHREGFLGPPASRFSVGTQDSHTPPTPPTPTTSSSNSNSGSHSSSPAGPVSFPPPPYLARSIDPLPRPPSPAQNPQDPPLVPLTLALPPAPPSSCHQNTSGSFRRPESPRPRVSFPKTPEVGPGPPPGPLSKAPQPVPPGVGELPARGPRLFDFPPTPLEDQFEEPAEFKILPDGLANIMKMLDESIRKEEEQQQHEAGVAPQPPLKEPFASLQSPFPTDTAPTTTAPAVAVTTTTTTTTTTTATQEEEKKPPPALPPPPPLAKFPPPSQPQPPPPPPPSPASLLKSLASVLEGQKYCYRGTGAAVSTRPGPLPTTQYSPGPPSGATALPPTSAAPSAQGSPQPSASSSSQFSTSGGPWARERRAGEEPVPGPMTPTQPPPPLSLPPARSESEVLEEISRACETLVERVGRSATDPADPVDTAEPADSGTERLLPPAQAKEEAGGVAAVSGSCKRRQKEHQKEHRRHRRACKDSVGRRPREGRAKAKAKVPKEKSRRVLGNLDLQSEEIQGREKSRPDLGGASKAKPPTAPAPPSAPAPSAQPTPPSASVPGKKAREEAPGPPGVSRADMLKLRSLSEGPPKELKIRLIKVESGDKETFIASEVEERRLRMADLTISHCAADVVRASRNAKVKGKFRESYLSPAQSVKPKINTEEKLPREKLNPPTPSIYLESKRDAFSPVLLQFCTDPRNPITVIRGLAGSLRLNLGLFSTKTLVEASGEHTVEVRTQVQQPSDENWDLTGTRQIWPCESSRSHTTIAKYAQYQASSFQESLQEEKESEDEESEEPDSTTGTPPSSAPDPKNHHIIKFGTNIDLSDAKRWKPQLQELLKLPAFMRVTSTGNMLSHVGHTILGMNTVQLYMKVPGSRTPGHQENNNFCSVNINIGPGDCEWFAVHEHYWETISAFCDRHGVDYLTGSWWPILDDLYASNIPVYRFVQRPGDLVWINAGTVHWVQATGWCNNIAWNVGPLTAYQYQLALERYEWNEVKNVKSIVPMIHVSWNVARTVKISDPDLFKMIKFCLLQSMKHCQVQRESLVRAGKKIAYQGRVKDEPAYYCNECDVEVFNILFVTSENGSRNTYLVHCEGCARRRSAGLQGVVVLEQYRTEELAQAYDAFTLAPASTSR

Nc1c(C(=O)O)ccnc1C(=O)O [Example 7, reference compound]
IC50 (KDM6B): 7.8 µM
IC50 (KDM2A): 0.36 µM
IC50 (KDM3A): 1.2 µM

CCN(CCN(C)C)C(=O)CNCc1cc(C(=O)O)ccn1 [Example 9]
IC50 (KDM6B): 4.1 µM
IC50 (KDM2A): 0.65 µM
IC50 (KDM3A): 1.1 µM

Cc1cc(Cl)ccc1COc1ccnn1-c1cc(C(=O)O)ccn1 [Example 11]
IC50 (KDM6B): 0.28 µM
IC50 (KDM2A): 0.45 µM
IC50 (KDM3A): 7.5 µM

O=C(O)c1ccncc1Nc1nn(CCN2CCC(F)(F)CC2)c2ccc(F)cc12 [Example 13]
IC50 (KDM6B): 0.4 µM
IC50 (KDM2A): 0.51 µM

N#CNC(=O)c1ccncc1Nc1nn(CCN2CCC(F)(F)CC2)c2ccc(F)cc12 [Example 14]
IC50 (KDM3A): 3.9 µM

CCN(CC)CCCCNCc1cc(C(=O)O)ccn1 [Example 18]
IC50 (KDM6B): 27 µM
IC50 (KDM2A): 2 µM
IC50 (KDM3A): 5.4 µM
